# Data reported in patent US9758492B2, “IDO inhibitors” (Bristol-Myers Squibb Company, priority 2013, dated 2017).
# Biological target: IDO (Homo sapiens, UniProt P14902)
# Assay: LLE_IDO_ABS_DR (IDO assay)
# IDO, sequence (P14902 whole entry): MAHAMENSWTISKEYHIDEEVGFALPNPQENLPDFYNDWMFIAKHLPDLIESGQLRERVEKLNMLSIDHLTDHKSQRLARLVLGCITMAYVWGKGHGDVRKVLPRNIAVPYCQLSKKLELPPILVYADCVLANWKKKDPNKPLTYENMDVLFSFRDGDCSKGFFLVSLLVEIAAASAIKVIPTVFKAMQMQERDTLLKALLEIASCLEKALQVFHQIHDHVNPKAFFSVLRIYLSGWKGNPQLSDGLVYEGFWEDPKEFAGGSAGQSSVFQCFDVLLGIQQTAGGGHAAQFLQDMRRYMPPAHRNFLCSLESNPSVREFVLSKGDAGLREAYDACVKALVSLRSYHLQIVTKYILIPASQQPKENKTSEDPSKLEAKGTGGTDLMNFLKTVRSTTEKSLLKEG
row,IC50 [nM],Compound
1,450,"C#CCN(CC(C)C)c1ccc(-c2cc(F)ccc2C(=O)O)cc1NC(=O)Nc1ccc(C)cc1 [Example 23, 5-Fluoro-4′-(isobutyl(prop-2-yn-1-yl)amino)-3′-(3-(p-tolyl)ureido)-[1,1′-biphenyl]-2-carboxylic acid]"
2,460,"CC(C)CN(CC(C)C)c1ccc(-c2ccccc2-c2nnn[nH]2)cc1NC(=O)Nc1ccccc1C1CC1 [Example 274, 1-(2-cyclopropylphenyl)-3-(4-(diisobutylamino)-2′-(1H-tetrazol-5-yl)-[1,1′-biphenyl]-3-yl)urea]"
3,190,"Cc1ccc(NC(=O)Nc2cc(-c3cc(F)ccc3C(=O)O)ccc2N(C)C2CCC(F)(F)CC2)cc1 [Example 105, 4′-((4,4-difluoro-cyclohexyl) (methyl)amino)-5-fluoro-3′-(3-p-tolylureido) biphenyl-2-carboxylic acid]"
4,2.55,"Cc1ccc(NC(=O)Nc2cc(-c3ccccc3-c3nnn[nH]3)ccc2N(CC(C)C)CC(C)CC(F)(F)F)cc1 (centres unmarked) [Example 27, 1-(4-(Isobutyl(4,4,4-trifluoro-2-methylbutyl)amino)-2′-(1H-tetrazol-5-yl)-[1,1′-biphenyl]-3-yl)-3-(p-tolyl)urea]"
5,560,"COc1ccc(-c2ccc(N(C)c3ccccc3C(C)(C)C)c(NC(=O)Nc3ccccc3F)c2)cc1C(=O)O [Example 209, 4′-((2-(tert-butyl)phenyl) (methyl)amino)-3′-(3-(2-fluorophenyl)ureido)-4-methoxy-[1,1′-biphenyl]-3-carboxylic acid]"
6,30,"CC(C)CN(c1ccc(-c2ccccc2C(=O)O)cc1NC(=O)Nc1ccccc1F)C(C)C [Example 154, 3′-(3-(2-fluorophenyl)ureido)-4′-(isobutyl(isopropyl)amino)biphenyl-2-carboxylic acid]"
7,160,"O=C(Nc1ccc(OC(F)(F)F)cc1)Nc1cc(-c2ccccc2-c2nnn[nH]2)ccc1N(CCc1ccccc1)CCC(F)(F)F [Example 331, 1-(4-(phenethyl(3,3,3-trifluoropropyl)amino)-2′-(1H-tetrazol-5-yl)-[1,1′-biphenyl]-3-yl)-3-(4-(trifluoromethoxy)phenyl)urea]"
8,250,"CCN(CC(C)(C)C)c1ccc(-c2ccccc2C(=O)O)cc1NC(=O)Nc1ccccc1F [Example 108, 4′-(ethyl(neopentyl)amino)-3′-(3-(2-fluorophenyl)ureido) biphenyl-2-carboxylic acid]"
9,1230,"COc1cc(NC(=O)Nc2cc(-c3ccccc3-c3nnn[nH]3)ccc2N(CC(C)C)CC(C)C)ccc1F [Example 252, 1-(4-(diisobutylamino)-2′-(1H-tetrazol-5-yl)-[1,1′-biphenyl]-3-yl)-3-(4-fluoro-3-methoxyphenyl)urea]"
10,5.9,"[2H]C([2H])(C(C)C)N(c1ccc(-c2sccc2C(=O)O)cc1NC(=O)Nc1ccccc1F)C1CCCCC1 [Example 36, 2-(4-(Cyclohexyl(1,1-dideutero-2-methylpropyl)amino)-3-(3-(2-fluorophenyl)ureido)phenyl)thiophene-3-carboxylic acid]"
11,250,"O=C(Nc1ccc(C2CC2)cc1)Nc1cc(-c2ccccc2-c2nnn[nH]2)ccc1N(CCC(F)(F)F)Cc1ccc(F)cc1 [Example 350, 1-(4-cyclopropylphenyl)-3-(4-((4-fluorobenzyl)(3,3,3-trifluoropropyl)amino)-2′-(1H-tetrazol-5-yl)-[1,1′-biphenyl]-3-yl)urea]"
12,4.76,"Cc1ccc(NC(=O)Nc2cc(-c3ccccc3-c3nnn[nH]3)ccc2N(CC(C)C)C2CCCCC2)cc1 [Example 118, 1-(4-(cyclohexyl(isobutyl)amino)-2′-(1H-tetrazol-5-yl)biphenyl-3-yl)-3-p-tolylurea]"
13,350,"O=C(Nc1ccc(C2CC2)c(F)c1)Nc1cc(-c2ccccc2-c2nnn[nH]2)ccc1N(CCC(F)(F)F)Cc1ccc(Cl)cc1Cl [Example 351, 1-(4-cyclopropyl-3-fluorophenyl)-3-(4-((2,4-dichlorobenzyl)(3,3,3-trifluoropropyl)amino)-2′-(1H-tetrazol-5-yl)-[1,1′-biphenyl]-3-yl)urea]"
14,10,"CCCCN(CCCC)c1ccc(-c2cc(F)ccc2C(=O)O)cc1NC(=O)Nc1ccc(C)cc1 [Example 90, 4′-(dibutylamino)-5-fluoro-3′-(3-p-tolylureido)biphenyl-2-carboxylic acid]"
15,4.05,"Cc1ccc(NC(=O)Nc2cc(-c3ccccc3-c3nnn[nH]3)cc(F)c2N(CC(C)C)CC(C)C)cc1 [Example 5, 1-(4-(Diisobutylamino)-5-fluoro-2′-(1H-tetrazol-5-yl)biphenyl-3-yl)-3-p-tolylurea]"
16,20,"Cc1ccc(NC(=O)Nc2cc(-c3ccccc3C(=O)O)ccc2N(CC(C)C)C2CCC2)cc1 [Example 183, 4′-(cyclobutyl(isobutyl)amino)-3′-(3-(p-tolyl)ureido)-[1,1′-biphenyl]-2-carboxylic acid]"
17,4740,Cc1ccc(NC(=O)Nc2cc(-c3ccccc3-c3nnn[nH]3)ccc2N(CCC(C)(C)O)Cc2ccc(Cl)cc2)cc1 [Example 375]
18,390,"O=C(Nc1cc(-c2ccccc2-c2nnn[nH]2)ccc1N(CCC(F)(F)F)Cc1ccc(C(F)(F)F)cc1)Nc1ccccc1C(F)(F)F [Example 328, 1-(2′-(1H-tetrazol-5-yl)-4-((4-(trifluoromethyl)benzyl)(3,3,3-trifluoropropyl)amino)-[1,1′-biphenyl]-3-yl)-3-(2-(trifluoromethyl)phenyl)urea]"

row,IC50 [nM],Compound
1,770,"Cc1ccc(NC(=O)Nc2cc(-c3ccoc3C(=O)O)ccc2N(CC(C)C)CC(C)C)cc1 [Example 152, 3-(4-(diisobutylamino)-3-(3-p-tolylureido)phenyl)furan-2-carboxylic acid]"
2,40,"CCCN(c1ccc(-c2cc(F)ccc2C(=O)O)cc1NC(=O)Nc1ccccc1F)C1CCCC1 [Example 167, 4′-(cyclopentyl(propyl)amino)-5-fluoro-3′-(3-(2-fluorophenyl)ureido)biphenyl-2-carboxylic acid]"
3,60,"CCCCN(CCCC)c1ccc(-c2sccc2C(=O)O)cc1NC(=O)Nc1ccc(C)cc1 [Example 91, 2-(4-(dibutylamino)-3-(3-p-tolylureido)phenyl)thiophene-3-carboxylic acid]"
4,270,"Cc1ccc(NC(=O)Nc2cc(-c3ccccc3C(=O)O)ccc2N(CCC(F)(F)F)Cc2ccccc2Cl)cc1 [Example 17, 4′-((2-Chlorobenzyl)(3,3,3-trifluoropropyl)amino)-3′-(3-(p-tolyl)ureido)-[1,1′-biphenyl]-2-carboxylic acid]"
5,1460,"CC(C)CN(CC(C)C)c1ccc(-c2ccccc2-c2nnn[nH]2)cc1NC(=O)Nc1cccc(-n2ccnc2)c1 [Example 267, 1-(3-(1H-imidazol-1-yl)phenyl)-3-(4-(diisobutylamino)-2′-(1H-tetrazol-5-yl)-[1,1′-biphenyl]-3-yl)urea]"
6,40,"Cc1ccc(NC(=O)Nc2cc(-c3ccccc3-c3nnn[nH]3)ccc2N(CCC(F)(F)F)Cc2ccc(Cl)cc2Cl)cc1 [Example 505, 1-(4-((2,4-Dichlorobenzyl)(3,3,3-trifluoropropyl)amino)-2′-(1H-tetrazol-5-yl)-[1,1′-biphenyl]-3-yl)-3-(p-tolyl)urea]"
7,1.74,"CC(C)CN(c1cc(F)c(-c2ccccc2C(=O)O)cc1NC(=O)Nc1ccccc1F)C1CCCCC1 [Example 228, 4′-(cyclohexyl(isobutyl)amio-no)-2′-fluoro-5′-(3-(2-fluorophenyl)ureido) biphenyl-2-carboxylic acid]"
8,20,"Cc1ccc(NC(=O)Nc2cc(-c3cc(F)ccc3C(=O)O)ccc2N(CC(C)C)C2CCCC2)cc1 [Example 171, 4′-(cyclopentyl(isobutyl)amino)-5-fluoro-3′-(3-p-tolylureido)biphenyl-2-carboxylic acid]"
9,5260,"O=C(Nc1ccc(C2CC2)cc1)Nc1cc(-c2ccccc2-c2nnn[nH]2)ccc1N1CCC(F)(F)C1 [Example 347, 1-(4-cyclopropylphenyl)-3-(4-(3,3-difluoropyrrolidin-1-yl)-2′-(1H-tetrazol-5-yl)-[1,1′-biphenyl]-3-yl)urea]"
10,5490,"Cc1ccc(NC(=O)Nc2cc(-c3ccccc3-c3nnn[nH]3)ccc2N2CCCc3ccccc32)cn1 [Example 362, 1-(4-(3,4-Dihydroquinolin-1(2H)-yl)-2′-(1H-tetrazol-5-yl)-[1,1′-biphenyl]-3-yl)-3-(6-methylpyridin-3-yl)urea]"
11,5.18,"[2H]C([2H])(C(C)C)N(c1ccc(-c2cc(F)ccc2C(=O)O)cc1NC(=O)Nc1ccc(C)cc1)C1CCCCC1 [Example 31, 4′-(Cyclohexyl(1,1-dideutero-2-methylpropyl)amino)-5-fluoro-3′-(3-p-tolylureido)biphenyl-2-carboxylic acid]"
12,10,"Cc1ccc(NC(=O)Nc2cc(-c3ccccc3-c3nnn[nH]3)ccc2N(CC(C)C)C2CCC2)cc1 [Example 184, 1-(4-(cyclobutyl(isobutyl)amino)-2′-(1H-tetrazol-5-yl)-[1,1′-biphenyl]-3-yl)-3-(p-tolyl)urea]"
13,2.59,"CC(C)CN(c1ccc(-c2ccccc2-c2nnn[nH]2)cc1NC(=O)Nc1ccccc1F)C1CCCCC1 [Example 121, 1-(4-(cyclohexyl(isobutyl)amino)-2′-(1H-tetrazol-5-yl)biphenyl-3-yl)-3-(2-fluorophenyl)urea]"
14,190,"CC(C)CN(CC(C)C)c1ccc(-c2ccccc2-c2nnn[nH]2)cc1NC(=O)Nc1cccc(N(C)C)c1 [Example 262, 1-(4-(diisobutylamino)-2′-(1H-tetrazol-5-yl)-[1,1′-biphenyl]-3-yl)-3-(3-(dimethylamino)phenyl)urea]"
15,10,"CC(C)CN(c1ccc(-c2ccccc2C(=O)O)cc1NC(=O)Nc1ccccc1F)C1CCCC1 [Example 173, 4′-(cyclopentyl(isobutyl)amino)-3′-(3-(2-fluorophenyl)ureido) biphenyl-2-carboxylic acid]"
16,160,"O=C(Nc1ccc(F)cc1F)Nc1cc(-c2ccccc2-c2nnn[nH]2)ccc1N(CCC(F)(F)F)Cc1ccc(F)cc1 [Example 324, 1-(2,4-difluorophenyl)-3-(4-((4-fluorobenzyl) (3,3,3-trifluoropropyl)amino)-2′-(1H-tetrazol-5-yl)-[1,1′-biphenyl]-3-yl) urea]"
17,350,"CCN(CC(C)(C)C)c1ccc(-c2cc(F)ccc2C(=O)O)cc1NC(=O)Nc1ccccc1F [Example 115, 4′-(ethyl(neopentyl)amino)-5-fluoro-3′-(3-(2-fluorophenyl)ureido) biphenyl-2-carboxylic acid]"
